Source: patent US20210353566A1, “THE USE OF CHOLINE SUPPLEMENTATION AS THERAPY FOR APOE4-RELATED DISORDERS” (Massachusetts Institute of Technology, priority 2020, published 2021)

Experiments:
APOE4-expressing yeast = assay: Growth rate of APOE4-expressing yeast in minimal CSM media; format: cell-based; details: ethanolamine 1 mM, choline chloride 1 mM, choline bitartrate 100 μg/ml, compared to APOE3 strain
Excerpt: The data was normalized to the growth of untreated yeast strain expressing GFP (control). Data are represented as mean±SD, n=3. […] Data is represented as mean±SD, n=6 (Student's t-test, ns p>0.05; *** p≤0.001).
In order to explore APOE4-mediated lipid dysregulation in an unbiased manner, yeast were built and interrogated that express APOE3 or APOE4 in to the secretory pathway.

APOE4 astrocytes [1] = assay: Lipid droplet number (LipidTox) in iPSC-derived APOE4 astrocytes in supplemented media; format: cell-based, human; details: for LD number per cell: APOE4 astrocytes, supplemented media (CDP-choline 100 μM) vs vehicle
Procedure: (§1) Right, quantification of the lipid droplet number per cell (n=4 experiments). […] Lipid were extracted from APOE3 and APOE4 iPSC-derived astrocytes grown in a regular media or the media supplemented with CDP-choline (100 μM). Data is represented as mean±SD, n=3 experiments.

APOE4 astrocytes [2] = assay: Intracellular TAGs and their unsaturation extracted from iPSC-derived astrocytes; format: cell-based, human; details: CDP-choline 100 μM vs regular media
Procedure: as §1

APOE4 microglia = details: interferon gamma
Excerpt: Data is represented as mean±SD, n=3-5 (ANOVA with multiple comparisons, * p≤0.05, ** p≤0.01).
Many AD risk factors are expressed in microglia including APOE, which along with TREM2, coordinates the transition from homeostatic to disease-associated state (Kraseman et al, 2017; Keren-Shaul et al, 2017).

EFAD mice = system: EFAD mice
Excerpt: FIGS. 7A-7C show graphs depicting mice weight over time. FIG. 7A depicts mice fed a high choline diet (3.4 g/kg choline chloride) and minimum recommended choline diet (0.7 g/kg choline chloride) for one month. FIG. 7B depicts mice fed a sub-recommended choline diet (0.1 g/kg choline chloride) compared to standard choline (1.1 g/kg choline chloride) for one month. FIG. 7C depicts mice fed a high choline diet (3.4 g/kg choline chloride) and minimum recommended choline diet (0.7 g/kg choline chloride) for three months.
The “EFAD” APOE knock-in mouse were selected, where the endogenous Apoe locus is replaced with the human isoform of APOE2, APOE3, or APOE4 in 5×FAD mice, and where APOE isoform effects on disease progression have been documented (Tai et al, 2017). Custom chow containing the National Research Council (NRC) minimum, (0.7 g/kg choline chloride) and NRC maximum (3.4 g/kg choline chloride) was manufactured and fed these to EFAD mice for 4-12 weeks (˜84 days).

APOE3 astrocytes = assay: Lipid droplet quantification (LipidTox) in iPSC-derived astrocytes treated with oleic acid; format: cell-based, human; details: oleic acid 20 μM vs vehicle
Excerpt: (§2) FIG. 1A is a schematic depicting the use of isogenic astrocytes derived from patient-derived iPSCs and the lipidomic analysis. FIG. 1B is a heatmap showing the fold change (log 2) between APOE4/APOE4 and APOE3/APOE3 in abundance of phospholipids (˜150 lipid species, upper panel) and triglycerides (˜120 species, lower panel). FIG. 1C is a graph presenting a fold change difference of the number of unsaturated bonds in fatty acids attached to triglycerides (TAGs). […] Data is represented as mean±SD (Student's t-test, **** p≤0.0001). FIG. 1E is a fluorescent microscopy images of the APOE3/APOE3 and APOE4/APOE4 astrocytes stained with an anti-Perilipin 2 antibody. Right, quantification of the Perilipin-2 foci per cell (each point (n) is an average of four wells, n=4). Data is represented as mean±SD (Student's t-test, **** p≤0.0001). FIG. 1F is a quantification of lipid droplets in astrocytes treated with vehicle (control) or with oleic acid (20 μM) (n=4 experiments).
(§3) APOE is expressed in several organs, with the highest expression in the liver, followed by the brain. In the brain, astrocytes and to some extent microglia are the major cell types that express APOE in the brain (Kim, Basak et al. 2009). It was hypothesized that APOE4-mediated lipid dysregulation contributes to its role as a disease risk factor. […]

APOE4 astrocytes [3] = assay: as above; format: cell-based, human; details: oleic acid 20 μM vs vehicle
Excerpt: as §2, §3

[4] = chow 0.7 g/kg and 3.4 g/kg choline chloride, 4-12 weeks
[5] = diets 0.1, 0.7, 1.1, 3.4 g/kg choline chloride, one or three months

C[N+](C)(C)CCO.O=C([O-])C(O)C(O)C(=O)O (stereo not shown) [choline bitartrate]
growth of APOE4 yeast in supplemented media (APOE4-expressing yeast): sufficient to suppress the APOE4-associated growth defect

C[N+](C)(C)CCOP(=O)(O)OP(=O)([O-])OC[C@H]1O[C@@H](n2ccc(N)nc2=O)[C@H](O)[C@@H]1O [CDP-choline]
LD number per cell (APOE4 astrocytes [1]): significant decrease in the LD number, down to the levels found in APOE3-expressing astrocytes
intracellular TAG levels (APOE4 astrocytes [2]): normalizes
unsaturation of TAGs (number of unsaturated bonds in fatty acids) (APOE4 astrocytes [2]): normalizes

C[N+](C)(C)CCO.[Cl-] [choline chloride]
growth of APOE4 yeast in supplemented media (APOE4-expressing yeast): sufficient to suppress the APOE4-associated growth defect
lipid droplet volume, APOE4 vs APOE3 microglia (APOE4 microglia; supplemented 65 μM Choline Chloride vs low 15 μM, extended culture): no difference is detected
IL-1b induction (APOE4 microglia; supplemented 250 μM Choline Chloride vs low 65 μM): rescued
LD number per cell (APOE4 astrocytes [1]): significant decrease in the LD number, down to the levels found in APOE3-expressing astrocytes
lipid droplet accumulation, dose dependence (APOE4 astrocytes [1]; choline chloride 1 μM, 10 μM, 100 μM in astrocyte media, extended culture 14 days): improves lipid droplet accumulation in a dose-dependent manner
general health (EFAD mice; [4]): general health appeared normal
toxicity (EFAD mice; [4]): no clear indication of toxicity
body condition or appetite (EFAD mice; [5]): no significant defects
mice weight over time (EFAD mice; [5]): gained appropriate weight

NCCO [ethanolamine]
growth of APOE4 yeast in supplemented media (APOE4-expressing yeast): did not influence growth

CCCCCCCC/C=C\CCCCCCCC(=O)O [oleic acid]
increase of lipid droplet content (APOE3 astrocytes): ~1.5 fold
lipid droplet accumulation (APOE4 astrocytes [3]): ~3 fold
